This note sets out measurements from patent US20170304355A1, “COMPOSITIONS AND METHODS OF USE THEREOF” (priority 2014, published 2017).

In general, MIC refers to the lowest concentration that inhibits growth of the organism.

Where two headings read alike, the source gives them in different places.

In test [1] the test system is P. aeruginosa strain SUS116. Description: Minimal Biofilm Inhibitory Concentration (MBIC) assay. Type of test: cell-based. Particulars: for MBIC Tobramycin: alone. Here is the method: (§1) Each isolate was taken from the −80° C. freezer stock and grown for approximately 20 hours in LB Broth at 37° C. shaking water bath. […] The antibiotics and PAAG (22.4% functionalization, 36.9 kDa, 89.74 DDA, 1.63 PDI) were prepared similar to a checkerboard assay (2× concentration to accommodate addition of culture) in MH broth, in a sterile flat-bottomed 96-well plate. For MRSA strain SA5, the PAAG concentrations tested were 0-128 ug/ml. The vancomycin concentrations tested were 0-4 ug/ml. […] The tobramycin concentrations tested were 0-4 ug/ml. Plates were incubated in a 37° C. incubator.
(§2) The fractional inhibitory concentration (FIC) was calculated as; FIC calculation: […]
(§3) and the FIC relationship was defined as; Synergy: FIC≦0.5; Additive: 0.5<FIC≦1.0; or Indifferent: FIC>1.0.

The test system of test [2] is mupirocin-resistant MRSA strains 2-4C and 2-9A. The experiment in a line: Time-kill assay (vCFU), PAAG and mupirocin. Type of test: cell-based, Staphylococcus aureus. Particulars: 24-hours. The source says:
(§4) Checkerboard and time kill bactericidal studies of mupriocin, methicillin-resistant Staphylococcus aureus strains 2-4C and 2-9A were completed as part of the synergy studies to evaluate potentiation of […] by PAAG (25% functionalized, 43 kDa). Synergistic relationships between PAAG and oxacillin were examined in vitro using the broth microdilution checkerboard assay in 96-well microtiter plates. Serial two-fold dilutions of PAAG and oxacillin were placed in each well with approximately 1×10^5 CFU/ml of S. aureus. Each plate was incubated 20 hours. The MIC was determined as the lowest concentration where no visible bacterial growth was observed. […] Controls for bacterial growth and sterility were included. The FIC for each strain was calculated. The FIC is an interaction coefficient indicating whether the combined inhibitory/bacteristatic effect of drugs is synergistic (FIC of 0.5 or less), additive ([…]), or antagonistic (FIC>4). The FIC is =A+B, where: A=(MIC of X with Y)/(MIC of drug X alone) and B=(MIC of Y with X)/(MIC of drug Y alone). The time-kill assay (vCFU) was performed using the microdilution technique. Approximately 1×10^5 CFU/ml of each bacteria tested was tested against mupriocin alone and in combination. Concentrations of PAAG tested were ½-⅛×MIC. The vCFU was determined after 24 hours treatment using the microtiter technique (8).

The next test has as its system MRSA. The experiment in a line: Broth microdilution checkerboard assay, PAAG and oxacillin. In kind it is cell-based, Staphylococcus aureus. To be noted: for MIC: Staphylococcus aureus, MRSA.
Excerpt: as §4
In general terms: In broth dilution the organism is exposed to a series of concentrations in liquid medium.

Test [3] relates to clinical isolates of P. aeruginosa. The experiment in a line: Checkerboard assay, PAAG and tobramycin. Type of test: cell-based. Particulars: Pseudomonas aeruginosa. The protocol:
Two independent checkerboard assays screened 64 unique combinations of antimicrobial concentrations in duplicate. […] Bacteria were incubated at 37° C. for 20 hours. The MIC was determined as the lowest concentration with no visible bacterial growth observed.

The subject of test [4] is P. aeruginosa strain PA01. The experiment in a line: Checkerboard assay, various PAAG's and tobramycin. In kind it is cell-based. To be noted: Pseudomonas aeruginosa.
The test system of another test is MRSA strain SA5. The experiment in a line: Minimal Biofilm Inhibitory Concentration (MBIC) assay. Type of test: cell-based, Staphylococcus aureus. The protocol:
as §1, §2, §3

Consider `C[C@H]1[C@H](NC(=O)/C(=N\OC(C)(C)C(=O)O)c2csc(N)n2)C(=O)N1S(=O)(=O)O` [Aztreonam], for which the “MBIC Aztreonam (with PAAG)” value in test [1] (in combination with PAAG) turned out to be 0.06 µg/mL.

In the case of `C/C(=C\C(=O)OCCCCCCCCC(=O)O)C[C@@H]1OC[C@H](C[C@@H]2O[C@H]2[C@@H](C)[C@H](C)O)[C@@H](O)[C@H]1O` [Mup, mupirocin], the “Log10 reduction (CFU/ml)” value in test [2] (strain 2-4C, Mup 8 μg/ml alone) is reported as 0 Log10 CFU/ml; in test [2] (strain 2-9A, Mup 4 μg/ml alone) it was 0 Log10 CFU/ml.

For `Cc1onc(-c2ccccc2)c1C(=O)N[C@@H]1C(=O)N2[C@@H]1SC(C)(C)[C@@H]2C(=O)O` [OXA, oxacillin], the MIC with MRSA (all strains, alone, read-out: MIC oxacillin) is at least 4 mg/L; in the test with MRSA (strain 2-1A, alone, read-out: MIC OXA), 8 mg/L; in the test on MRSA (strain 2-1A, read-out: MIC OXA with PAAG), 1 mg/L; in the test with MRSA (strain 2-4C, alone, read-out: MIC OXA), 16 mg/L; in the test on MRSA (strain 2-4C, read-out: MIC OXA with PAAG), 2 mg/L; in the test with MRSA (strain 2-9A, alone, read-out: MIC OXA) it was 8 mg/L. The MIC is 0.5 mg/L with MRSA (strain 2-9A, read-out: MIC OXA with PAAG); 4 mg/L in the test on MRSA (strain MW-2, alone, read-out: MIC OXA); 1 mg/L with MRSA (strain MW-2, read-out: MIC OXA with PAAG); 4 mg/L in the test with MRSA (strain SA05, alone, read-out: MIC OXA); 1 mg/L in the test with MRSA (strain SA05, read-out: MIC OXA with PAAG). For the same compound, in the test on MRSA (all strains, PAAG at 2, 8 or 16 μg/ml), the “MIC of oxacillin after addition of PAAG (susceptible range)” value is at least 2 mg/L.

Take `NC[C@H]1O[C@H](O[C@H]2[C@H](O)[C@@H](O[C@H]3O[C@H](CO)[C@@H](O)[C@H](N)[C@H]3O)[C@H](N)C[C@@H]2N)[C@H](N)C[C@@H]1O` [Tobramycin]: the “MBIC Tobramycin” value in test [1] (PAAG and tobramycin table (TABLE 2)) was 6.25 µg/mL; in test [1] (column of the PAAG and aztreonam table (TABLE 1)), 2 µg/mL. Also, the “MBIC Tobramycin (with PAAG)” value in test [1] (in combination with PAAG) was determined as 2 µg/mL. For the same compound, the minimum inhibitory concentration (MIC) in test [3] (strain AMT-32-4, alone, read-out: MIC Tobramycin) is 0.31 mg/L; in test [3] (strain AMT-32-4, read-out: MIC Tobramycin (with PAAG)), 0.13 mg/L; in test [3] (strain MR29, alone, read-out: MIC Tobramycin), 0.31 mg/L; in test [3] (strain MR29, read-out: MIC Tobramycin (with PAAG)), 0.25 mg/L; in test [3] (strain MR 51, alone, read-out: MIC Tobramycin) it was 0.31 mg/L; in test [3] (strain MR 51, read-out: MIC Tobramycin (with PAAG)) it was 0.13 mg/L. Moreover, the MIC turned out to be 0.31 mg/L in test [3] (strain PA01, alone, read-out: MIC Tobramycin); 0.13 mg/L in test [3] (strain PA01, read-out: MIC Tobramycin (with PAAG)); 1.25 mg/L in test [3] (strain SUS 116, alone, read-out: MIC Tobramycin); 0.13 mg/L in test [3] (strain SUS 116, read-out: MIC Tobramycin (with PAAG)); 1 mg/L in test [4] (PA01, alone, assay run with PAAG^1, read-out: MIC Tobramycin); 0.5 mg/L in test [4] (PA01, alone, assay run with PAAG^2, read-out: MIC Tobramycin). Further, the MIC in test [4] (PA01, alone, assay run with PAAG^3, read-out: MIC Tobramycin) amounted to 0.5 mg/L; in test [4] (PA01, with PAAG^1 (27%, 32 kDa), read-out: MIC Tobramycin (with PAAG)), 0.031 mg/L; in test [4] (PA01, with PAAG^2 (31%, 54 kDa), read-out: MIC Tobramycin (with PAAG)), 0.031 mg/L; in test [4] (PA01, with PAAG^3 (25%, 40 kDa), read-out: MIC Tobramycin (with PAAG)), 0.063 mg/L.

Consider `CN[C@H](CC(C)C)C(=O)N[C@H]1C(=O)N[C@@H](CC(N)=O)C(=O)N[C@H]2C(=O)N[C@H]3C(=O)N[C@H](C(=O)N[C@H](C(=O)O)c4cc(O)cc(O)c4-c4cc3ccc4O)[C@H](O)c3ccc(c(Cl)c3)Oc3cc2cc(c3O[C@@H]2O[C@H](CO)[C@@H](O)[C@H](O)[C@H]2O[C@H]2C[C@](C)(N)[C@H](O)[C@H](C)O2)Oc2ccc(cc2Cl)[C@H]1O` [Vancomycin], for which the “MBIC Vancomycin” value with MRSA strain SA5 (alone) was 2 µg/mL. Further, in the test with MRSA strain SA5 (in combination with PAAG), the “MBIC Vancomycin (with PAAG)” value was found to be 1 µg/mL.
